Experimental data: patent US9555036B2, “Pyrazolopyrimidine compounds” (GlaxoSmithKline LLC, priority 2012, dated 2017)
Counter-ions that a name gives are not always drawn.

system: TNF-α; test: Induction of TNF-α using fresh human whole blood (WB); type: cell-based; settings: three donors, overnight incubation, cytokine as % of 2 μM resiquimod control, read-out: mean pEC50 for TNF-α (converted)
Protocol: Assay for the Induction of Interferon-α and TNF-α Using Fresh Human Whole Blood (WB) Compound Preparation
Compounds were prepared at 100× required concentration in DMSO in flat-bottom microtitre plates at a volume of 1.5 μL. Columns 1-10 contained a 1 in 4 serial dilution of the test compound. Included on each plate was a serial dilution of the TLR7/8 agonist resiquimod as a standard and Column 11 contained 1.5 μl of 200 μM resiquimod (giving a 2 μM final concentration, used to define the approximate maximal response to resiquimod). Each compound was assayed in duplicate for each donor.
Incubation and Assays for Interferon-α and TNF-α
Blood samples from three human donors were collected into sodium heparin (10 U/ml). 150 μl of whole Blood was dispensed into Col 1 to 11 of assay plates containing 1.5 μl of test compound or standard in DMSO. Plates were placed in an incubator overnight (37° C., 95% air, 5% CO2). Following the overnight incubation, plates were removed from the incubator & mixed on an orbital shaker for approximately 1 minute. 100 μl of 0.9% saline was added to each well and the plates mixed again on an orbital shaker. Plates were then centrifuged (2500 rpm, 10 mins), after which a sample of plasma was removed using a Biomek FX and assayed for both IFN-α and TNF-α using the MSD (Mesoscale Discovery) electrochemiluminescence assay platform. The IFN-α assay was carried out similarly to that described above. The TNF-α assay was carried out as per kit instructions (Cat No K111BHB).
Cytokine released was expressed as a percentage of the 2 μM resiquimod control (column 11). This percentage was plotted against compound concentration and the pEC50 for the response determined by non-linear least squares curve fitting. For the IFN-α responses, generally a 4 parameter logistic model was selected. For the TNF responses where a clear maximum response was obtained (i.e. a well defined plateau in the response was observed) then a 4 parameter model was generally used. If the upper asymptote of the curve wasn't well defined then the curve fitting was generally constrained to a maximal response of 100% (i.e. to the response to 2 μM resiquimod) or to the response of the highest concentration tested if this was greater than the resiquimod response. Some curves were bell shaped for one or both cytokines and the cytokine data on the down slope of the bell shaped response (i.e. concentrations above those giving the maximal response) were generally excluded from the fit, usually with the exception of the concentration immediately above the peak response. Curve fitting thus concentrated on the up slope of the dose response curve.

EC50, ≤ 3.98 µM:
CCCCc1nc(N)c2[nH]nc(CCCCCCN3CCCCC3)c2n1 [Example 1, 5-Butyl-3-(6-(piperidin-1-yl)hexyl)-1H-pyrazolo[4,3-d]pyrimidin-7-amine formate]
COCCc1nc(N)c2[nH]nc(CCCCCCN3CCCCC3)c2n1 [Example 2, 5-(2-Methoxyethyl)-3-(6-(piperidin-1-yl)hexyl)-1H-pyrazolo[4,3-d]pyrimidin-7-amine]
COCCc1nc(N)c2[nH]nc(CCCCCCN3CCCC3)c2n1 [Example 4, 5-(2-Methoxyethyl)-3-(6-(pyrrolidin-1-yl)hexyl)-1H-pyrazolo[4,3-d]pyrimidin-7-amine]
CCCCc1nc(N)c2[nH]nc(CCCCCN3CCCCC3)c2n1 [Example 5, 5-Butyl-3-(5-(piperidin-1-yl)pentyl)-1H-pyrazolo[4,3-d]pyrimidin-7-amine]
CCCCc1nc(N)c2[nH]nc(CCCCCN3CCCC3)c2n1 [Example 6, 5-Butyl-3-(5-(pyrrolidin-1-yl)pentyl)-1H-pyrazolo[4,3-d]pyrimidin-7-amine]
CCCCc1nc(N)c2[nH]nc(CCCCCCCN3CCCCC3)c2n1 [Example 7, 5-Butyl-3-(7-(piperidin-1-yl)heptyl)-1H-pyrazolo[4,3-d]pyrimidin-7-amine]
CCCCc1nc(N)c2[nH]nc(CCCCCCCN3CCCC3)c2n1 [Example 8, 5-Butyl-3-(7-(pyrrolidin-1-yl)heptyl)-1H-pyrazolo[4,3-d]pyrimidin-7-amine]
CCCCc1nc(N)c2[nH]nc(CCCCCCN3CCCCCC3)c2n1 [Example 9, 3-(6-(Azepan-1-yl)hexyl)-5-butyl-1H-pyrazolo[4,3-d]pyrimidin-7-amine]
CCCCc1nc(N)c2[nH]nc(CCCCCN3CCCCCC3)c2n1 [Example 10, 3-(5-(Azepan-1-yl)pentyl)-5-butyl-1H-pyrazolo[4,3-d]pyrimidin-7-amine]
CCCCc1nc(N)c2[nH]nc(CCCCCCN3CC[C@H](F)C3)c2n1 [Example 11, (S)-5-Butyl-3-(6-(3-fluoropyrrolidin-1-yl)hexyl)-1H-pyrazolo[4,3-d]pyrimidin-7-amine]
CCCCc1nc(N)c2[nH]nc(CCCCCN3CC[C@H](F)C3)c2n1 [Example 12, (S)-5-Butyl-3-(5-(3-fluoropyrrolidin-1-yl)pentyl)-1H-pyrazolo[4,3-d]pyrimidin-7-amine]
CCCCc1nc(N)c2[nH]nc(CCCCCCN3CC[C@@H](F)C3)c2n1 [Example 13, (R)-5-Butyl-3-(6-(3-fluoropyrrolidin-1-yl)hexyl)-1H-pyrazolo[4,3-d]pyrimidin-7-amine formate]
CCCCc1nc(N)c2[nH]nc(CCCCCN3CC[C@@H](F)C3)c2n1 [Example 14, (R)-5-Butyl-3-(5-(3-fluoropyrrolidin-1-yl)pentyl)-1H-pyrazolo[4,3-d]pyrimidin-7-amine]
CCCCc1nc(N)c2[nH]nc(CCCCCCN3CCC(O)CC3)c2n1 [Example 15, 1-(6-(7-Amino-5-butyl-1H-pyrazolo[4,3-d]pyrimidin-3-yl)hexyl)piperidin-4-ol]
CCCCc1nc(N)c2[nH]nc(CCCCCN3CCC(O)CC3)c2n1 [Example 16, 1-(5-(7-Amino-5-butyl-1H-pyrazolo[4,3-d]pyrimidin-3-yl)pentyl)piperidin-4-ol]
CCCCc1nc(N)c2[nH]nc(CCCCCCN3CCC(F)CC3)c2n1 [Example 17, 5-Butyl-3-(6-(4-fluoropiperidin-1-yl)hexyl)-1H-pyrazolo[4,3-d]pyrimidin-7-amine formate]
CCCCc1nc(N)c2[nH]nc(CCCCCN3CCC(F)CC3)c2n1 [Example 18, 5-Butyl-3-(5-(4-fluoropiperidin-1-yl)pentyl)-1H-pyrazolo[4,3-d]pyrimidin-7-amine]
